# Tests used:
# BRD4 BD1 WT [1] = biological target: T1, BRD4 BD1 WT (Homo sapiens, UniProt O60885); assay: competitive AlphaLISA; type: binding
# BRD3 BD2 WT = BRD3 BD2 WT (Homo sapiens, UniProt Q15059); assay: ITC; type: binding
# BRD3 BD1 WT = BRD3 BD1 WT (Homo sapiens, UniProt Q15059); assay: ITC; type: binding
# [2] = system: L/V somatic BET bromodomains; assay: ITC
# BRD2 BD1 L/V = BRD2 BD1 L/V (Homo sapiens, UniProt P25440, L110V); assay: ITC; type: binding
# BRD4 BD1 L/V [3] = biological target: T2, BRD4 BD1 L/V (Homo sapiens, UniProt O60885, L94V); assay: ITC; type: binding; conditions: for Kd: Kd BRD4 BD1 L/V
# BRD4 BD1 L/V [4] = biological target: T2, BRD4 BD1 L/V; assay: competitive AlphaLISA; type: binding
# BRD3 BD1 L/V = BRD3 BD1 L/V (Homo sapiens, UniProt Q15059, L70V); assay: ITC; type: binding
# BRD3 BD1 L/V, sequence (Q15059 24-144 L70V limits assumed): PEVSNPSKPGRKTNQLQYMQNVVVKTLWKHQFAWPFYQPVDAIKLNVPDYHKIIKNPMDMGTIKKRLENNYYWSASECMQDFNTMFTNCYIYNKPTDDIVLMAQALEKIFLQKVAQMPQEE
# BRD4 BD2 L/V [5] = biological target: T3, BRD4 BD2 L/V (Homo sapiens, UniProt O60885, L387V); assay: ITC; type: binding
# BRD4 BD2 WT = BRD4 BD2 WT (Homo sapiens, UniProt O60885); assay: ITC; type: binding
# BRD2 BD1 WT [6] = biological target: T4, BRD2 BD1 WT (Homo sapiens, UniProt P25440); assay: competitive AlphaLISA; type: binding
# T4 sequence (P25440 71-176): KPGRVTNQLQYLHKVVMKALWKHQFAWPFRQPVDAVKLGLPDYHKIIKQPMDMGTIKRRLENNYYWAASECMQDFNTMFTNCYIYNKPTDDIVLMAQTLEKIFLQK
# BRD4 BD2 L/V [7] = biological target: T3, BRD4 BD2 L/V; assay: competitive AlphaLISA; type: binding
# [8] = biological target: WT somatic BET bromodomains; assay: ITC; conditions: mean and SD of all somatic bromodomains
# BRD2 BD1 WT [9] = biological target: T4, BRD2 BD1 WT; assay: ITC; type: binding
# BRD4 BD1 WT [10] = biological target: T1, BRD4 BD1 WT; assay: ITC; type: binding
# BRD2 BD2 WT = BRD2 BD2 WT (Homo sapiens, UniProt P25440); assay: ITC; type: binding
# BRD2 BD2 WT, sequence (P25440 344-455): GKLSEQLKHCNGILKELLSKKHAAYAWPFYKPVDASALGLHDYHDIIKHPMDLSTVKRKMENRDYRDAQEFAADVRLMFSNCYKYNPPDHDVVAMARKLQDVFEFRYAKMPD
# BRD3 BD2 L/V = BRD3 BD2 L/V (Homo sapiens, UniProt Q15059, L345V); assay: ITC; type: binding
# BRD3 BD2 L/V, sequence (Q15059 306-416 L345V limits assumed): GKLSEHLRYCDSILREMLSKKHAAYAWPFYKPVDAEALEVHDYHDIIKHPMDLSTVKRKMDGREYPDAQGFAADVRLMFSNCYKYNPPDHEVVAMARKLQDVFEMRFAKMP
# BRD2 BD2 L/V = BRD2 BD2 L/V (Homo sapiens, UniProt P25440, L383V); assay: ITC; type: binding
# BRD2 BD2 L/V, sequence (P25440 344-455 L383V): as the sequence (P25440 344-455) above, with L40V counted along it
# BRD2 BD1 L/V, sequence (P25440 71-176 L110V limits assumed): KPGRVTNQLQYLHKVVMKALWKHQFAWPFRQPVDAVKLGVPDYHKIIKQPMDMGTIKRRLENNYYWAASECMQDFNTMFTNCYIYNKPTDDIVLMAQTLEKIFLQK
# BRD3 BD2 WT, sequence (Q15059 306-416): as the sequence (Q15059 306-416 L345V limits assumed) above, with V40L counted along it
# BRD3 BD1 WT, sequence (Q15059 24-144): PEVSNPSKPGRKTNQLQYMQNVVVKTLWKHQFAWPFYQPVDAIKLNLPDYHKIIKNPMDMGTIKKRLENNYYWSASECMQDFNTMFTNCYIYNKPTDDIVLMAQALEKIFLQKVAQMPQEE
compound,measurement,setting,value
CC[C@@H](C(=O)OC)[C@@H]1N=C(c2ccc(Cl)cc2)c2ccc(OC)cc2-n2c(C)nnc21 (racemic) [Compound 8],IC50,BRD4 BD1 WT [1]; AlphaLISA pIC50 Value BRD4 BD1 WT,1580 nM
same,IC50,"BRD4 BD1 WT [1]; pIC50 BRD4 BD1 WT, separated enantiomers test, total compound concentration",50100 nM
same,Kd,BRD3 BD2 WT,> 60000 nM
same,Kd,BRD3 BD1 WT,29000 nM
same,ITC pKd ± SD Δ,[2]; L/V minus WT,>2.2 ± 0.2
same,selectivity for the L/V mutant over wild-type,"[2]; across the BET subfamily, ITC",> 100 fold
same,ITC pKd ± SD L/V,[2]; mean and SD of all somatic bromodomains,6.4 ± 0.2
same,Kd,BRD2 BD1 L/V,340 nM
same,selectivity plot WT 2.1 vs L/V 2.1,BRD2 BD1 L/V; Kd BRD2 BD1 WT / Kd BRD2 BD1 L/V,> 180
same,selectivity plot WT 2.2 vs L/V 2.1,BRD2 BD1 L/V; Kd BRD2 BD2 WT / Kd BRD2 BD1 L/V,> 180
same,selectivity plot WT 3.1 vs L/V 2.1,BRD2 BD1 L/V; Kd BRD3 BD1 WT / Kd BRD2 BD1 L/V,90
same,selectivity plot WT 3.2 vs L/V 2.1,BRD2 BD1 L/V; Kd BRD3 BD2 WT / Kd BRD2 BD1 L/V,> 180
same,selectivity plot WT 4.1 vs L/V 2.1,BRD2 BD1 L/V; Kd BRD4 BD1 WT / Kd BRD2 BD1 L/V,> 180
same,selectivity plot WT 4.2 vs L/V 2.1,BRD2 BD1 L/V; Kd BRD4 BD2 WT / Kd BRD2 BD1 L/V,> 180
same,N BRD4 BD1 L/V,"BRD4 BD1 L/V [3]; ITC stoichiometry, total compound concentration",1.42 ±0.02
same,ΔH BRD4 BD1 L/V,"BRD4 BD1 L/V [3]; ITC, total compound concentration",-3.5 ± 0.1 kcal/mol
same,selectivity plot WT 2.1 vs L/V 4.1,BRD4 BD1 L/V [3]; Kd BRD2 BD1 WT / Kd BRD4 BD1 L/V,> 110
same,selectivity plot WT 2.2 vs L/V 4.1,BRD4 BD1 L/V [3]; Kd BRD2 BD2 WT / Kd BRD4 BD1 L/V,> 100
same,selectivity plot WT 3.1 vs L/V 4.1,BRD4 BD1 L/V [3]; Kd BRD3 BD1 WT / Kd BRD4 BD1 L/V,60
same,selectivity plot WT 3.2 vs L/V 4.1,BRD4 BD1 L/V [3]; Kd BRD3 BD2 WT / Kd BRD4 BD1 L/V,> 110
same,Kd,"BRD4 BD1 L/V [3]; ITC of separated enantiomers and racemates, total compound concentration",840 ± 170 nM
same,Kd,"BRD4 BD1 L/V [3]; ITC, 30°C",530 nM
same,selectivity plot WT 4.1 vs L/V 4.1,BRD4 BD1 L/V [3]; Kd BRD4 BD1 WT / Kd BRD4 BD1 L/V,> 100
same,selectivity plot WT 4.2 vs L/V 4.1,BRD4 BD1 L/V [3]; Kd BRD4 BD2 WT / Kd BRD4 BD1 L/V,> 100
same,IC50,BRD4 BD1 L/V [4]; AlphaLISA pIC50 Value BRD4 BD1 L/V,126 nM
same,ΔpIC50 BRD4 BD1,"BRD4 BD1 L/V [4]; L/V minus WT, total compound concentration",1.4
same,IC50,"BRD4 BD1 L/V [4]; pIC50 BRD4 BD1 L/V, separated enantiomers test, total compound concentration",2000 nM
same,Kd,BRD3 BD1 L/V,270 nM
same,selectivity plot WT 2.1 vs L/V 3.1,BRD3 BD1 L/V; Kd BRD2 BD1 WT / Kd BRD3 BD1 L/V,> 230
same,selectivity plot WT 2.2 vs L/V 3.1,BRD3 BD1 L/V; Kd BRD2 BD2 WT / Kd BRD3 BD1 L/V,> 230
same,selectivity plot WT 3.1 vs L/V 3.1,BRD3 BD1 L/V; Kd BRD3 BD1 WT / Kd BRD3 BD1 L/V,110
same,selectivity plot WT 3.2 vs L/V 3.1,BRD3 BD1 L/V; Kd BRD3 BD2 WT / Kd BRD3 BD1 L/V,> 230
same,selectivity plot WT 4.1 vs L/V 3.1,BRD3 BD1 L/V; Kd BRD4 BD1 WT / Kd BRD3 BD1 L/V,> 230
same,selectivity plot WT 4.2 vs L/V 3.1,BRD3 BD1 L/V; Kd BRD4 BD2 WT / Kd BRD3 BD1 L/V,> 230
same,Kd,BRD4 BD2 L/V [5],740 nM
same,selectivity plot WT 2.1 vs L/V 4.2,BRD4 BD2 L/V [5]; Kd BRD2 BD1 WT / Kd BRD4 BD2 L/V,> 80
same,selectivity plot WT 2.2 vs L/V 4.2,BRD4 BD2 L/V [5]; Kd BRD2 BD2 WT / Kd BRD4 BD2 L/V,> 80
same,selectivity plot WT 3.1 vs L/V 4.2,BRD4 BD2 L/V [5]; Kd BRD3 BD1 WT / Kd BRD4 BD2 L/V,40
same,selectivity plot WT 3.2 vs L/V 4.2,BRD4 BD2 L/V [5]; Kd BRD3 BD2 WT / Kd BRD4 BD2 L/V,> 80
same,selectivity plot WT 4.1 vs L/V 4.2,BRD4 BD2 L/V [5]; Kd BRD4 BD1 WT / Kd BRD4 BD2 L/V,> 80
same,selectivity plot WT 4.2 vs L/V 4.2,BRD4 BD2 L/V [5]; Kd BRD4 BD2 WT / Kd BRD4 BD2 L/V,> 80
same,Kd,BRD4 BD2 WT,> 60000 nM
same,IC50,BRD2 BD1 WT [6],10000 nM
same,IC50,BRD4 BD2 L/V [7],200 nM
same,ITC pKd ± SD WT,[8],<4.2
same,Kd,BRD2 BD1 WT [9],> 60000 nM
same,Kd,BRD4 BD1 WT [10],> 60000 nM
same,Kd,BRD2 BD2 WT,> 60000 nM
same,Kd,BRD3 BD2 L/V,410 nM
same,selectivity plot WT 2.1 vs L/V 3.2,BRD3 BD2 L/V; Kd BRD2 BD1 WT / Kd BRD3 BD2 L/V,> 150
same,selectivity plot WT 2.2 vs L/V 3.2,BRD3 BD2 L/V; Kd BRD2 BD2 WT / Kd BRD3 BD2 L/V,> 150
same,selectivity plot WT 3.1 vs L/V 3.2,BRD3 BD2 L/V; Kd BRD3 BD1 WT / Kd BRD3 BD2 L/V,70
same,selectivity plot WT 3.2 vs L/V 3.2,BRD3 BD2 L/V; Kd BRD3 BD2 WT / Kd BRD3 BD2 L/V,> 150
same,selectivity plot WT 4.1 vs L/V 3.2,BRD3 BD2 L/V; Kd BRD4 BD1 WT / Kd BRD3 BD2 L/V,> 150
same,selectivity plot WT 4.2 vs L/V 3.2,BRD3 BD2 L/V; Kd BRD4 BD2 WT / Kd BRD3 BD2 L/V,> 150
same,Kd,BRD2 BD2 L/V,300 nM
same,selectivity plot WT 2.1 vs L/V 2.2,BRD2 BD2 L/V; Kd BRD2 BD1 WT / Kd BRD2 BD2 L/V,> 200
same,selectivity plot WT 2.2 vs L/V 2.2,BRD2 BD2 L/V; Kd BRD2 BD2 WT / Kd BRD2 BD2 L/V,> 200
same,selectivity plot WT 3.1 vs L/V 2.2,BRD2 BD2 L/V; Kd BRD3 BD1 WT / Kd BRD2 BD2 L/V,100
same,selectivity plot WT 3.2 vs L/V 2.2,BRD2 BD2 L/V; Kd BRD3 BD2 WT / Kd BRD2 BD2 L/V,> 200
same,selectivity plot WT 4.1 vs L/V 2.2,BRD2 BD2 L/V; Kd BRD4 BD1 WT / Kd BRD2 BD2 L/V,> 200
same,selectivity plot WT 4.2 vs L/V 2.2,BRD2 BD2 L/V; Kd BRD4 BD2 WT / Kd BRD2 BD2 L/V,> 200

# Reference: PMC5909127, “Optimization of a “bump-and-hole” approach to allele-selective BET bromodomain inhibition” (Chemical Science, 2018)
